Results reported in a melting point compilation (Tetko et al.; mined from patent text by program, amines drawn as free bases though some values may be those of a salt).

melting point [°C]	SMILES
179 to 181	Cn1nc(-c2cc(C(=O)O)c(Cl)cc2F)c(Cl)c1C(F)(F)F
132 to 134	O=C1Nc2cccc(-c3cccc(NS(=O)(=O)c4cc(S(=O)(=O)c5ccccc5)cs4)c3)c2/C1=C/c1ccc[nH]1
33 to 34	O=[N+]([O-])c1ccc(CF)cc1
152 to 154	O=S(=O)(Nc1nccs1)c1ccc(Nc2nc(OCC3CCCCC3)c3nc[nH]c3n2)cc1
224 to 225	O=C(NC(CC12CC3CC(CC(C3)C1)C2)Nc1c(Nc2cccnc2)c(=O)c1=O)c1ccccc1Cl (configuration not stated)
158 to 160	Clc1ccc(-c2coc3c(Br)cccc23)cc1Cl
157 to 158	CCN(CC)CC(=O)Nc1ccc(C2=NN=C(C)Cc3cc4c(cc32)OCO4)cc1
161	Cc1ccc(CN2CCN(C3=NC4(C=CC(=O)C(Cl)=C4)C(c4ccccc4)=C3)CC2)cc1 (configuration not stated)
209	Nc1ccc(OS(=O)(=O)c2ccc(-n3ccnc3)cc2)cc1[N+](=O)[O-]
95 to 98	C#Cc1cn(-c2c(Cl)cc(C(F)(F)F)cc2Cl)nc1C(F)(F)F
225 to 226	O=C(Nc1ccccc1)c1c[nH]c2c1C(=O)CCC2
116 to 117	CCCCCCCCCCCCCCc1ccc(S(=O)(=O)Nc2nncs2)cc1
162 to 163	CN(C(=O)CN(O)C(N)=O)c1cccc(OCc2ccccc2)c1
79	COc1ccc(CN(CCN(C)CCCCCCNC(=NCCCOc2cccc(CN3CCCCC3)c2)NC#N)c2ccccn2)cc1
130 to 132	O=C(O)CN(CC(=O)O)C(=O)C(=O)c1ccc(OCCCCCCCCCCCCOc2ccccc2)cc1
128 to 130	COc1ccc(-c2nc3c(O)cccc3s2)cc1
150 to 151	CN(C)CCNC(=O)c1ccc(S(N)(=O)=O)cc1
131 to 133	CN1C(=O)C2C3CCC(C3)C2(c2ccc(N)cc2)C1=O (configuration not stated)
107 to 111	COCC#Cc1cc(C(=O)OC)c(N)cc1C(F)(F)F
132	COc1ccc(CN(C)CCCc2ccc(NC(=O)c3cccc4c(=O)c5cccc(F)c5[nH]c34)c(C)c2)cc1OC
87	OC(c1ccccc1)(c1ccccc1)c1ccccc1Cl
238 to 239	Cc1cc2c(cc1C(=O)c1ccc(C(=O)O)cc1)C1(C)C3(C)CCC(C3)C1(C)O2 (configuration not stated)
223 to 226	CCCC(O)c1cc2c(=O)n(NS(C)(=O)=O)c(=O)[nH]c2cc1C(F)(F)F (configuration not stated)
164 to 165	C=C1COc2ccc(C(=O)OC)cc2C(Cc2ccccc2)(S(=O)(=O)c2ccccc2)C1 (configuration not stated)

melting point [°C]	SMILES
250 to 252	Cc1nc(O)c(C)c(NCCc2ccncc2)n1
242 to 245	CS(=O)(=O)c1ccc(Nc2nccc(N3CCCc4c(O)cccc43)n2)cc1
114	Cc1ccc2c(c1)[nH]c(=O)n2CCCO
134 to 138	ClCCOc1cc(-c2cccs2)n[nH]1
188 to 190	O=c1[nH]c2ccc(S(=O)CCN3CCC(Cc4cccc(F)c4F)CC3)cc2o1 (configuration not stated)
140 to 142	CCOC(=O)C(=O)N1Cc2cc(OC)ccc2C(Cc2c(Cl)cncc2Cl)=N1
130 to 132	Cc1c(NC(=O)CC(C)(C)C)cc2c(c1C)OC(C)(C)C2Cc1ccc(C(C)C)cc1 (configuration not stated)
225	Cc1nc2cccc(C)n2c(=O)c1CCN1CCC(c2c[nH]c3ccccc23)CC1
183 to 184	C(=C(\C(=C\c1ccccc1)c1ccccc1)c1ccccc1)/c1ccccc1
138 to 140	CC=CCOc1ccc(C)c2c1C(=O)C(C)C2c1ccccc1 (configuration not stated)
194 to 196	N#CC(C#N)=C1CC=CO1
130 to 135	O=C(NCC12CC3CC(CC(C3)C1)C2)c1cc(-c2cc(F)cnc2N2CCC(C(=O)O)CC2)ccc1Cl
114 to 116	Cc1cccc2c1nc(COc1ccc(Cl)cc1)n2CCC(C)CC1NCCc2ccccc21 (racemic)
> 250	O=c1[nH]c2scc(C3CC3)c2[nH]c1=O
45	CC(C)c1nc(N(C(C)C)C(C)C)c([N+](=O)[O-])c(N(C(C)C)C(C)C)n1
142 to 143	COC(=O)c1ccc(/C=C/c2nc(-c3ccco3)oc2C)cc1
124	Cc1cccc2c1NS(=O)(=O)N(C(C)C)C2=O
152	Cc1ccccc1C1c2ccccc2S(=O)(=O)N1C (single isomer, unassigned; (+))
157 to 160	CC(=O)NCCc1nnc(S)s1
189 to 191	Nc1cccc2c1C(=O)C1=C(CCCC1)C2=O
205 to 206	CCOC(=O)c1cccc2nc(C)n(Cc3ccc(-c4ccccc4-c4nnn[nH]4)cc3)c12
197 to 200	O=C1CCc2cc(NCC(=O)N3CCC(Cc4ccc(F)cc4)CC3)ccc2N1
141 to 142	CC(C)(C)OC(=O)NCCNC(=O)c1ccc([N+](=O)[O-])cn1
72 to 75	CC=CCn1c(C)c(C)c2cnnc(OCc3cccs3)c21

melting point [°C]	SMILES
158 to 159	Cc1c(C(=O)Nc2ccc(N(CCO)CCO)c(C#N)c2)cnn1-c1ccc(F)cc1
99 to 100	COc1cc(COc2nn(Cc3ccccc3)cc2CC(=O)O)ccc1OCc1nc(-c2ccccc2)oc1C
68 to 70	O=C1N[C@H](C(=O)NCCCCO[N+](=O)[O-])CS1
133 to 135	CCOC(=O)c1ccc(-c2n[nH]c3ccccc23)cc1
88 to 91	CON=CNC(=O)c1ccc(C=NO)cc1C
114 to 115	Cc1cc(Br)cnc1CCCCn1nnc2cc(Cc3cccnc3)cnc21
106 to 107	COC(=O)c1c(-c2ccccc2F)c2cc(OCc3ccccc3)ccc2c(=O)n1CC(C)C
174 to 177	COc1cc(Nc2c([N+](=O)[O-])ccc(Cl)c2C(=O)O)cc(OC)c1
179	O=C(O)c1cc(Cl)c(F)c(Cl)c1F
169 to 172	Cc1ccc(NC(=O)c2ccc(CN(C)C)c(C(F)(F)F)c2)cc1Br
81 to 84	Cc1ccc(C)c(-c2ccc(S(=O)(=O)N3c4ccccc4CC3C(=O)NCCOc3ccc(CC(=O)O)cc3)cc2)c1 (configuration not stated)
160	COc1cccc(OC)c1-c1cc(C(=O)NC2(C(=O)O)C3CCCC2CCC3)nn1-c1ccc(C(=O)N(C)CCCN(C)C)cc1C(C)C (configuration not stated)
230 to 232	Nc1ccn(C[C@@H]2O[C@H](CO)[C@@H](O)[C@@H]2O)c(=O)n1
149 to 150	CN(c1cccc2cc(C3=NCC(C)(CCOS(C)(=O)=O)S3)[nH]c12)S(=O)(=O)c1cccs1 (configuration not stated)
156 to 157	CC(C)Oc1ccc(CCCCOc2cc(CCC(=O)O)n(C)n2)c(Oc2ncc(C(F)(F)F)cc2Cl)c1
265 to 270	CC12CC(=O)C3C(CCC4CC(O)CCC43C)C1CCC2C(=O)O (configuration not stated)
122 to 123	CSC(=Cc1cnn(-c2c(Cl)cc(C(F)(F)F)cc2Cl)n1)S(C)=O (configuration not stated)
203 to 205	CC(C)n1nc(-c2cnc(N)nc2-c2ccccc2Br)ccc1=O
266 to 267	CC(C)n1nc(-c2c(-c3ccccc3)nn3ccc(NC(=O)c4ccccc4)cc23)ccc1=O
153 to 155	O=C(c1ccc(-c2ccc(O)cc2)cc1)C1CC=CC1
93 to 96	CCCCCCN1N=C(c2ccc(F)cc2)c2cc(F)ccc2CS1(=O)=O
182 to 184	O=C(O)c1c(C(O)=S)cc([N+](=O)[O-])cc1-c1ccccc1
140 to 142	Cc1c(CC(=O)O)c2cc(OCc3ccccc3)ccc2n1Cc1ccc(Cl)cc1
91 to 93	CCN(CC)C(=O)CCC(=O)Oc1cc(-n2c(=O)cc(C(F)(F)F)n(C)c2=O)c(F)cc1Cl

melting point [°C]	SMILES
144 to 146	COc1ccc(N2CCN(c3c(C)c(C)c4c(c3C)C(O)(c3ccc(N(C)C)cc3)C(C)(C)O4)CC2)cc1 (configuration not stated)
172 to 173	CC(C)(C)NC(=O)[C@@H]1C[C@H](N2CCOCC2)CN1C(=O)OC(C)(C)C
101	Nc1ccc(OCc2ccc(Cl)nc2)cc1F
220 to 221	CN(C)CC(=O)Nc1cccc(-c2cc(-c3ccccc3O)nc(NC(=O)c3cccs3)c2C#N)c1
90 to 93	Cc1cc(N2CCCCCC2)c2ccc(NCc3ccc(C(F)(F)F)cc3)cc2n1
82 to 83	CCOC(=O)CCCCCCCn1c(Cc2ccccc2)nc(-c2ccccc2)c1-c1ccccc1
67 to 70	CNC(=O)CCC(C)=S
111 to 113	Cc1ccccc1C(N)=CC#N
146 to 148	CCCCOc1nc2cccc(C(=O)OC)c2n1Cc1ccccc1-c1ccccc1-c1nnn[nH]1
116	CC1CCCN(C(=O)c2nc(-c3ccccc3)nc3ccccc23)C1 (configuration not stated)
169 to 171	CC(C)NC(=O)C1=C(C(=O)Nc2cc(OC3CCCC3)c(Cl)cc2F)CCCC1
> 300	C[Si](C)(C)CCOCn1cc(C#N)c(=O)c2cc(N)c(N)cc21
143 to 145	C=CCOc1ccccc1C1C(C(=O)OCC)=C(C)NC(C#N)=C1C(=O)OCC (configuration not stated)
134 to 136	O=C(Cn1ccnc1)c1ccc(CCc2ccccc2)cc1
147 to 148	CC(C)(C)c1ccc(NC(=O)Nc2cccc(C(=O)O)c2)cc1
175 to 177	CCCOc1ccc2nc(NC(=O)OCC)sc2c1
94 to 96	CCOC(=O)c1cnc2c(N)cccc2c1
128 to 129	COc1cc2c(cc1O)CCN(Cc1cccc(C)c1)C2
68 to 70	CCC(CC)Nc1c([N+](=O)[O-])cc(C(C)C)c(CSC#N)c1[N+](=O)[O-]
159 to 160	CCCCN(c1cccc(-c2ccnc3c([N+](=O)[O-])cnn23)c1)S(=O)(=O)c1ccccc1
207	COC(=O)c1cn(-c2ncnc3c2ccn3C)c2ncccc12

SMILES	melting point [°C]
CN1CC2CC2(C(=O)O)C1 (configuration not stated)	193 to 195
O=C1C=C(NC(=O)C(=O)c2cn(Cc3ccc(Cl)cc3)c3ccc([N+](=O)[O-])cc23)CO1	248 to 250
CCOC(=O)COC1CCC2C3CCC4N(C)C(=O)CCC4(C)C3CCC12C (configuration not stated)	39 to 41
O=C1OCC2CCC1(c1ccc(Cl)cc1Cl)O2 (configuration not stated)	136 to 137
